Results on 2 compounds are retold here after patent US20090238808A1, “Process for the identification of novel enzyme interacting compounds” (priority 2005, published 2009).

In one experiment the target is T1, DDR2 (Homo sapiens, UniProt Q16832).
T1 construct: purchased Upstate (IC50Profiler Express service)
Briefly: Biochemical kinase activity assay (Upstate IC50Profiler Express). Conditions: Upstate IC50Profiler Express service.

The target of the next experiment is CSK (Homo sapiens, UniProt P41240). Conditions: purified kinase; published data; cited from earlier work.
The next experiment has as its target T2, MER (Homo sapiens, UniProt Q12866).
T2 sequence (Q12866 21-999): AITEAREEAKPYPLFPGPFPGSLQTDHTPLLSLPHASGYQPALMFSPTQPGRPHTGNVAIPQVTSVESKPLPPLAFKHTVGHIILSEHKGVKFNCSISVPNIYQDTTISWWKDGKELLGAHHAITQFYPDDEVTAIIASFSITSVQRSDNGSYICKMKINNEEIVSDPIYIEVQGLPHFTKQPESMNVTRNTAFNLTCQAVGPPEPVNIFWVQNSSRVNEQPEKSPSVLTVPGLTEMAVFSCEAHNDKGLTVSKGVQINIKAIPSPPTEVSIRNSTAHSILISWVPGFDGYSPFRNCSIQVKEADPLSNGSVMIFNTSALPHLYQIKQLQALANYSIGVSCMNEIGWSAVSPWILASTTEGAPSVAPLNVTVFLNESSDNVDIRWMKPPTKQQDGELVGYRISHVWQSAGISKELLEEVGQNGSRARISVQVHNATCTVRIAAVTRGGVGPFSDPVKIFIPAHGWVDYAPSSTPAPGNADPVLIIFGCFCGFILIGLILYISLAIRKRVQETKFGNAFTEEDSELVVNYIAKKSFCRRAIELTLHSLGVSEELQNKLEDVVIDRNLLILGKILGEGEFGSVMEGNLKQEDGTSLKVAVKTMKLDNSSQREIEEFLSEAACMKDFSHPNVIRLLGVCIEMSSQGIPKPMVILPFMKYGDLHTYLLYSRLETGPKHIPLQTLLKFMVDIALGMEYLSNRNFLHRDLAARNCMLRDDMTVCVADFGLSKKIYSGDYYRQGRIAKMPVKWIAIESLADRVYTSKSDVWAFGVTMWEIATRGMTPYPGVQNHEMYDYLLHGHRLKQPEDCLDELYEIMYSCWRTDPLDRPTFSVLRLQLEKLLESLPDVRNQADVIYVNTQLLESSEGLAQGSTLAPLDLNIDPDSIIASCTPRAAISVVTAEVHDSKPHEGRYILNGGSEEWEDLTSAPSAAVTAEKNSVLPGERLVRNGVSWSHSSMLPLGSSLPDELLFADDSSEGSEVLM
Briefly: Biochemical kinase activity assay (Invitrogen SelectScreen).

The next experiment deals with BTK (Homo sapiens, UniProt Q06187). The description is as above. Conditions: read-out: % inhibition, BTK.
The target of another experiment is GCK (Homo sapiens, UniProt Q12851). Described as above. Particulars: read-out: % inhibition, GCK.
The subject of experiment [1] is phosphorylation sites on kinobeads-captured proteins, K562 cells. Briefly: Phosphorylation analysis of kinobeads-captured proteins from drug-treated K562 cells. The format is cell-based, human. Conditions: of 379 sites on 136 proteins identified. The source says: To explore not only the direct targets of the drugs but also their downstream effects on signaling pathways, aliquots of the iTRAQ-labeled peptide mixtures from kinobeads precipitates were subjected to phosphopeptide enrichment and subsequent identification and quantification by mass spectrometry. […] Indeed, most of these proteins have been implicated in signaling events downstream of ABL (FIG. 10b)^16, 18. For all three drugs together, we found down-regulation of 20 sites on 13 proteins (FIGS. 22 and 23).
Mass Spectrometry and Data analysis.
LC-MS/MS for IMAC samples were performed twice.

The target of a further experiment is FAK/PTK2 (Homo sapiens, UniProt Q05397). Briefly: Biochemical kinase activity assay (Invitrogen SelectScreen). Conditions: read-out: % inhibition, FAK.
In another experiment the target is KHS1 (Homo sapiens, UniProt Q9Y4K4). The experiment is described as above. Particulars: read-out: % inhibition, KHS1.
In the next experiment the target is EphB4 (Homo sapiens, UniProt P54760). The experiment is described as above. Particulars: read-out: % inhibition, EphB4.
A further experiment concerns the target FER (Homo sapiens, UniProt P16591). Described as above. Particulars: read-out: % inhibition, FER.

FAK/PTK2, sequence (Q05397 whole entry): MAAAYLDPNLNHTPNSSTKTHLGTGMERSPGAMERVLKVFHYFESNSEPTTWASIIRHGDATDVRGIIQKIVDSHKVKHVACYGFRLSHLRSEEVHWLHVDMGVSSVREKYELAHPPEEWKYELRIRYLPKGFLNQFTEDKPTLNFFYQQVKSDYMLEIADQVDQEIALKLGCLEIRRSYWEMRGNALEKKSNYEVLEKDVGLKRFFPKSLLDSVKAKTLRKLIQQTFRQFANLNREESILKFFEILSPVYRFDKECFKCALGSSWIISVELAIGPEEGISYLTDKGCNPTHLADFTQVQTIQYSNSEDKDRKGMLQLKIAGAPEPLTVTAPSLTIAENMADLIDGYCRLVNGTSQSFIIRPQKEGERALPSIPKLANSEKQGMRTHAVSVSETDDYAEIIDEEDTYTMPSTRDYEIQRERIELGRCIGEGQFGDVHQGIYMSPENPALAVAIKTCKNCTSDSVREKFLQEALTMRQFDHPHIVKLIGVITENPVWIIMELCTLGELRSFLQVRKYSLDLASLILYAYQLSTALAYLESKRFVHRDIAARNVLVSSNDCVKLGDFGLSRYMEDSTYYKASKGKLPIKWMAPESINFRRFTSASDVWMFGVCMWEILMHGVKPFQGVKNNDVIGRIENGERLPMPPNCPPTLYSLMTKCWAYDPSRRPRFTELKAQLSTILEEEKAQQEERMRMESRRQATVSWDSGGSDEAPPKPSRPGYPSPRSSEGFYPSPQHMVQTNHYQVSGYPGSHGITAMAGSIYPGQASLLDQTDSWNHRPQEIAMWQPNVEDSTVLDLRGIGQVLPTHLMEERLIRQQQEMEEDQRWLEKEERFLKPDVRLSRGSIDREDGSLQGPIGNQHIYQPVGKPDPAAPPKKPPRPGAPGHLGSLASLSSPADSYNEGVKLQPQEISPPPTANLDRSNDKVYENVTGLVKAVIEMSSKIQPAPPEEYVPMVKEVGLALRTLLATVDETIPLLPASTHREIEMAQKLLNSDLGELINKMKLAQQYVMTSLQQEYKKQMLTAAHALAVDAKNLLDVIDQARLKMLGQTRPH
GCK, sequence (Q12851 whole entry): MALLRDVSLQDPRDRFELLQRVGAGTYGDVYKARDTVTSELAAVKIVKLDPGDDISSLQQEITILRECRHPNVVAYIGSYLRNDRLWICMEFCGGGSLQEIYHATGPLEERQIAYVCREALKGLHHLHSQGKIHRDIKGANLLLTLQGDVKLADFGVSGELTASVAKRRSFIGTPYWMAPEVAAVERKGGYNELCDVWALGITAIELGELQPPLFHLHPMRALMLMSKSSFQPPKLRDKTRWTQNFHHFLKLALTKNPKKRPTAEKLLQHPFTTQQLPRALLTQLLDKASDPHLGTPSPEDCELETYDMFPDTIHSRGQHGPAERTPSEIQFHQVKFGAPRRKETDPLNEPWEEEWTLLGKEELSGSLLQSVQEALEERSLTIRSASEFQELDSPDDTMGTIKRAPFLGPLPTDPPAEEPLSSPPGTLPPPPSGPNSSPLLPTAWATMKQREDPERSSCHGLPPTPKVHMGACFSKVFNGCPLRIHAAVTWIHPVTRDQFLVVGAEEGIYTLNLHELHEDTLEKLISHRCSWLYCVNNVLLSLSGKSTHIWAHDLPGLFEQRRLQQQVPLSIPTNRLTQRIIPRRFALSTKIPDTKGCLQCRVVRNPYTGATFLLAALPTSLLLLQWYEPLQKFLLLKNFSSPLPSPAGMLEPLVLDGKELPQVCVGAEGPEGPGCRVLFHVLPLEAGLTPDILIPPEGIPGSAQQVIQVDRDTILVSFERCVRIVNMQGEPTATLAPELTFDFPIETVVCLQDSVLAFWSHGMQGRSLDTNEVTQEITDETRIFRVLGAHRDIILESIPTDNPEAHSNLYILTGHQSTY
EphB4, sequence (P54760 16-987): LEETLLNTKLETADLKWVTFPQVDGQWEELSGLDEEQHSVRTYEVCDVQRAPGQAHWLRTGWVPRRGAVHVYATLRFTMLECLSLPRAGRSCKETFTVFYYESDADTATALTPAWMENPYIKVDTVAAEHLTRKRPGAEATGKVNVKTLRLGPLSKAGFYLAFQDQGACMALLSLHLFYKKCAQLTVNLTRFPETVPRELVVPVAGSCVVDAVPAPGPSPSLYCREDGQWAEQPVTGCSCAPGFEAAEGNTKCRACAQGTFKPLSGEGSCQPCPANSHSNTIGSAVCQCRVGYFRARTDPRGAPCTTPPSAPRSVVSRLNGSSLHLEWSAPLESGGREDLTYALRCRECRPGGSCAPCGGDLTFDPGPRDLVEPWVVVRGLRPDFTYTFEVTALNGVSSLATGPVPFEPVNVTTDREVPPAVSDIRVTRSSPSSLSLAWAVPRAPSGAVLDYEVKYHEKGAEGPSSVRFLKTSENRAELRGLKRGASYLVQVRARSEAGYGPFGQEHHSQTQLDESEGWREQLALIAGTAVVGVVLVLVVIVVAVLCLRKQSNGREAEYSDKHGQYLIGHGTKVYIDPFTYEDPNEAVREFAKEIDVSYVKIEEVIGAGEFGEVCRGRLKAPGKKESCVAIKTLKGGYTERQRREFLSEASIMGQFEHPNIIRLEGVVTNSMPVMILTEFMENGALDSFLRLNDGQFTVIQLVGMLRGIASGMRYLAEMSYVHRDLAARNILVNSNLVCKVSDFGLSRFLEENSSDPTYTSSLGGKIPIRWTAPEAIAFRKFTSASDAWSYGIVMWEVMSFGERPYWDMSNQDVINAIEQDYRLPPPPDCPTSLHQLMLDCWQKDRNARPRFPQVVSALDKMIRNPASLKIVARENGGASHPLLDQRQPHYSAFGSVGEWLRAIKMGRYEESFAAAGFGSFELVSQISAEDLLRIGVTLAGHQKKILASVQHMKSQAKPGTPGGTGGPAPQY
FER, sequence (P16591 whole entry): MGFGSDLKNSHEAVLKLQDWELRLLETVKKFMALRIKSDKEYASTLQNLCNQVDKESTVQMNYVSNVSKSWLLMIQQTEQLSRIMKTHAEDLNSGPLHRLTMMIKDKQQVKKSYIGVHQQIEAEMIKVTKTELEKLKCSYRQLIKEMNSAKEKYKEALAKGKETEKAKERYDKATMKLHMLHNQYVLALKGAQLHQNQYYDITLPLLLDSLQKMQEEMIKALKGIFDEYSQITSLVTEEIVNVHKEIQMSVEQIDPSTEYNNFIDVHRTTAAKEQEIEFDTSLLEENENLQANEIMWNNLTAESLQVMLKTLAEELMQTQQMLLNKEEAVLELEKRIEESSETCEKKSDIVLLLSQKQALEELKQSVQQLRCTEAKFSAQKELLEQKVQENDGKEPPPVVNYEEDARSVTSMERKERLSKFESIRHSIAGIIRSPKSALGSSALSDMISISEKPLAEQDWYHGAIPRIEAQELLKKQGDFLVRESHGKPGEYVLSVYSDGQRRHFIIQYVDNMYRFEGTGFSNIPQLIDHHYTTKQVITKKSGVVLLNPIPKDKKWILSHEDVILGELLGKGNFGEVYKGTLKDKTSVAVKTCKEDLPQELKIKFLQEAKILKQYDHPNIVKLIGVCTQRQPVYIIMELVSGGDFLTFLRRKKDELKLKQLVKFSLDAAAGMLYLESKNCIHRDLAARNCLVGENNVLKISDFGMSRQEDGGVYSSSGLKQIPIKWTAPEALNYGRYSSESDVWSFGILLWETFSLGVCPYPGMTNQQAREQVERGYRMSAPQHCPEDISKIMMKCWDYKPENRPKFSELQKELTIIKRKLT
T1 sequence (Q16832 22-855): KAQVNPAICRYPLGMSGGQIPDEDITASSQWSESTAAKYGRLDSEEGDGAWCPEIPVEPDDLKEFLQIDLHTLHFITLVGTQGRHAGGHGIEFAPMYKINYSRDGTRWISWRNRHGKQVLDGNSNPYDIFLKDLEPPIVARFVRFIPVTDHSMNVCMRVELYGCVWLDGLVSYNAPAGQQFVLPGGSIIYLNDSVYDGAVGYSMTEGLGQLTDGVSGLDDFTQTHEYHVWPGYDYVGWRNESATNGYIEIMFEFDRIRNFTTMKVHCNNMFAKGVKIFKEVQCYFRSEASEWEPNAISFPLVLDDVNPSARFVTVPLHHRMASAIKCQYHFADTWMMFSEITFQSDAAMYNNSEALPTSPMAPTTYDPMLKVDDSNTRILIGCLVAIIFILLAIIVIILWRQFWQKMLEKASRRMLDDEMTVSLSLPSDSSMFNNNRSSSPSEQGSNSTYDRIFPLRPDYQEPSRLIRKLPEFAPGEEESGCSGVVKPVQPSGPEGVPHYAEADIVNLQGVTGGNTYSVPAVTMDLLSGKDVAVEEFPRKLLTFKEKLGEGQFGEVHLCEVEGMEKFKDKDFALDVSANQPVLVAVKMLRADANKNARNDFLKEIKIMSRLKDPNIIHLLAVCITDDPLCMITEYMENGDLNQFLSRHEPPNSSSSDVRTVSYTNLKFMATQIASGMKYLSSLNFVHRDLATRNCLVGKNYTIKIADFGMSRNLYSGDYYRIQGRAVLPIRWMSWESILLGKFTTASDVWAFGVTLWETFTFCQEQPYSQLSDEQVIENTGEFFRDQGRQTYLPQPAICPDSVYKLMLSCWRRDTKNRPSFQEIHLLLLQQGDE
CSK, sequence (P41240 whole entry, species assumed): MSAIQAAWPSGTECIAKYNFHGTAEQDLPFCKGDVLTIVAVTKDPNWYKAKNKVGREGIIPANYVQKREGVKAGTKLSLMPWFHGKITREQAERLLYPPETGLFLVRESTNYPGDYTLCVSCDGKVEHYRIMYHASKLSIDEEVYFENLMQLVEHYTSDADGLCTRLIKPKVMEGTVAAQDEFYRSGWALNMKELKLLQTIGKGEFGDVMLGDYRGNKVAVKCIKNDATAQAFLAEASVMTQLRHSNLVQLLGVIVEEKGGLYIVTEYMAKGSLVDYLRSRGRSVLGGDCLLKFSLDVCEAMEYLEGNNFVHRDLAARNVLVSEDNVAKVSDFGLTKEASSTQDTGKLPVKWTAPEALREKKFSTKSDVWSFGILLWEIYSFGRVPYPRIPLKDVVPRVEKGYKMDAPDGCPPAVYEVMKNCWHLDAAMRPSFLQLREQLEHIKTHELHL

The IC50 is the point on the concentration scale where inhibition reaches its midpoint. Consider `COc1cc(Nc2c(C#N)cnc3cc(OCCCN4CCN(C)CC4)c(OC)cc23)c(Cl)cc1Cl` [bosutinib], for which the IC50 against DDR2 was 4900 nM; at CSK, 310 nM; against MER, 15.7 nM.
What is called inhibition is the share of the control response that was lost under treatment. `Cc1ccc(NC(=O)c2ccc(CN3CCN(C)CC3)cc2)cc1Nc1nccc(-c2cccnc2)n1` [imatinib]: the inhibition at 5 µM came to 4% at BTK; 10% on GCK; 2% at FAK/PTK2; 14% at KHS1; 5% on EphB4; 11% on MER (read-out: % inhibition, MER). In addition, the inhibition at 5 µM on FER stood at 14%. Besides, the “number of phosphorylation sites with substantial down-regulation” value in [1] is given as “Eight”.
